Data: US11759411B2, “Non-therapeutic use of a biodegradable hydrocarbon oil” (TOTAL MARKETING SERVICES, priority 2017, dated 2023)
Marks after values point to notes of the source that are not given here.

How the values were obtained:
HaCaT cells [1] = test: H2DCF-DA test, production of ROS after oil then preservative (POE or MIT); format: cell-based
Procedure: (§1) The following standards and methods were used to measure the properties hereinabove: • flash point: EN ISO 2719 • density at 15° C.: EN ISO 1185 • viscosity at 40° C.: EN ISO 3104 • aniline point: EN ISO 2977 • boiling point: ASTM D86 • biodegradability: OECD method 306 • refractive index at 20° C.: ASTM D 1218 • vapour pressure: calculated according to methods well known to those skilled in the art Tests for Anti-Wrinkle or Anti-Ageing Cosmetic Applications Preparation of the Tests: • Preparation of the microplates: 24 hours before the incubation with the oils A and B, the HaCaT cells are inoculated with a cell density of 100,000 cells/ml in 96-well microplates (Corning). […]
The cellular effects are evaluated directly on the adherent living cells by cytofluorimetric microtitration (MiFALC tests-Microtitration Fluorimetric Assays on Live Cells). The microplate reader used in the study is the Safire cytometer (Tecan).
The test H2DCF-DA (2′,7′-dihydrodichlorofluoresceine diacetate) is used in order to evaluate the production of reactive oxygen species. […] Thus, an increase in the intensity of fluorescence is combined with an increase in the production of reactive oxygen species (ROS) and by extrapolation with an increase in the oxidative stress in the cells studied.
Preservatives, used as an additive in cosmetic compositions, were evaluated. […]

HaCaT cells [2] = test: HOECHST 33342 test, condensation of the chromatin; format: cell-based; settings: one hour with oil or CM, then 20 minutes with BAC 8 ppm by weight, HOECHST 33342, HaCat cells
Procedure: as §1, with “(Corning). The microplates are then placed in the incubator at 37° C. In a microplate, each condition was tested at least three times. Each experiment was carried out at least three times independently in order to validate the reproducibility of the results and to carry out statistical analyses. • Incubation of cells with the oils A or B: two durations of incubation were selected for the products to be tested pure: an incubation for fifteen minutes and an incubation for one hour.” for “(Corning).”
The cellular effects are evaluated directly on the adherent living cells by cytofluorimetric microtitration (MiFALC tests-Microtitration Fluorimetric Assays on Live Cells). The microplate reader used in the study is the Safire cytometer (Tecan). […]

Cn1sccc1=O [MIT, methylisothiazolinone]
Production of ROS (HaCaT cells [1]; oil or none, then MIT): 135 % relative to the CM

benzalkonium chloride [CM + BAC]
Measurement of the condensation of the chromatin (HaCaT cells [2]): 138*** % relative to the CM

phenoxyethanol [CM + POE]
Production of ROS (HaCaT cells [1]; oil or CM (e.g. 15 minutes) then POE (e.g. 30 minutes, phenoxyethanol 250 μg/mL)): 132 % relative to the CM
